The values that follow come from PubChem BioAssay AID2305 (GlaxoSmithKline (GSK), 2010).

Where “and” joins values, the source holds several entries; their conditions need not be identical. Identical values can stand only once.

The assay relates to P. falciparum 3D7 growth, pLDH absorbance. Description: blood-stage malaria parasite growth potency – strain 3D7, dose response (AID 2305).
Regarding `CCOc1ccccc1C=CC(=O)Nc1ccc2nc(N3CCN(C)CC3)cc(C)c2c1`, the IC50 was determined as 270 nM.
In turn, `c1ccc(Oc2ccc(Nc3ccnc4cc(-c5ccc(CNCCN6CCOCC6)o5)ccc34)cc2)nc1` displayed an IC50 of 1440 nM.
`N=c1n(CCN2CCCCC2)c2ccccc2n1CC(O)c1cccc(Br)c1` (stereo not drawn) registered a concentration for half-maximal inhibition (IC50) of 1140 nM.
Compound `O=C(NC1CCCCCC1)[C@@H]1CCCN1C(=O)c1ccc(O)c(-c2ccc(Cl)c(Cl)c2)c1` displayed a half-maximal inhibitory concentration (IC50) of 340 nM.
The same measure for `NC(=O)c1ccccc1OCC(=O)Nc1ccc(-c2cccc(-c3nc4ccc(C(F)(F)F)cc4[nH]3)c2)cc1`: 980 nM; for `Cc1ccc2nc(C)cc(Nc3ccccc3O)c2c1`: 790 nM; for `CN(C(=O)Cc1ccc(Cl)cc1)C1CCN(CCCCCNC(=O)/C=C/c2ccc(Cl)c(Cl)c2)CC1`: 720 nM.
The same measure for `COc1cccc(-c2cc(-c3ccc(NC(=O)c4ccccc4)cc3)c3c(N)ncnc3n2)c1`: 590 nM; for `CN(C)CCN(C)Cc1ccc(-c2cccc(NC(=O)c3ccc(Cl)cc3)c2)cc1`: 560 nM; for `C[C@@H](CC1CCCCC1)NCc1cccc(NS(=O)(=O)c2ccc(O)c(-c3ccno3)c2)c1`: 380 nM.
As for `Cc1ccccc1OCCCN1CCN(CC(c2ccc(F)cc2)N2CCN(C(C)C)CC2)CC1` (stereo not drawn), the figure is 1410 nM.
`CCOc1ccccc1CCNCC1CCN(CC2CCCCC2)CC1` showed an IC50 of 780 nM.
Consider `O=C(Nc1ccc(Cn2ncc(N3CCCNCC3)c(Cl)c2=O)cc1)Nc1cc(Cl)cc(Cl)c1`, for which the IC50 turned out to be 870 nM.
As for `COc1ccc2ncc(F)c(CCN3C[C@H](CNCc4nc5c(cc4Cl)OCC(=O)N5)[C@H](O)C3)c2n1`, the figure is 950 nM and 1280 nM and 830 nM; as for `CC(=O)N/N=C/[C@H](CCc1ccccc1)NC(=O)[C@H](CC(C)C)NC(=O)c1ccc(F)cc1`, 690 nM; as for `Ic1cc(Nc2ncnc3ccsc23)ccc1OCc1ccccc1`, 770 nM.
The same measure for `CC1(C)C[C@@H]2C[C@@](C)(CN2C(=O)c2cc(C(C)(C)C)nn2Cc2ccccc2)C1`: 1090 nM; for `CN1CCCC1CCNC(=O)[C@H](CC1CCCCC1)NC(=O)c1ccc(O)c(-c2ccc(Cl)c(Cl)c2)c1` (stereo partly drawn): 740 nM; for `Cc1cc(OCCCN2CCCCC2)ccc1NC(=O)COc1ccc(Cl)cc1C(=O)c1cc(C#N)cc(C(F)(F)F)c1`: 1030 nM.
In turn, `COc1cccc(C(=O)Nc2ccc(Oc3ccc(Cl)cc3)cc2)c1` came in with an IC50 of 960 nM.
The same measure for `Cc1ccc(C)c(C2CCN(CCCCNC(=O)c3ccc(NC(=O)c4ccc(Cl)cc4)cc3)CC2)c1`: 850 nM; for `Oc1cccc(-c2nc(-c3cccc(I)c3)c(-c3ccc(-c4nc(-c5cccc(O)c5)[nH]c4-c4cccc(I)c4)cc3)[nH]2)c1`: 920 nM; for `N#Cc1ccc(NC(=O)Nc2ccc(OC(F)(F)F)cc2)cc1`: 820 nM.
As for `C[C@H](Cc1ccc(C(=O)OCCOC(=O)c2ccc(C[C@@H](C)NC[C@H](O)c3cccc(C(F)(F)F)c3)cc2)cc1)NC[C@H](O)c1cccc(C(F)(F)F)c1`, the IC50 came to 820 nM.
`CCNc1nc(OCC(F)(F)F)nc(N(c2ccccc2)c2ccccc2)n1` displayed an IC50 of 470 nM.
`CN1CCCc2ccc(NC(=O)c3ccc(-c4cc(C(F)(F)F)nn4C)s3)cc2C1` yielded an IC50 of 880 nM.
The same measure for `Cc1cc(N2CCN(C)CC2)nc2ccc(NC(=O)Cc3cccc(C(F)(F)F)c3)cc12`: 740 nM.
For the compound `COCC(=O)Nc1nc2ccccc2[nH]1`, the IC50 came to 300 nM.
In turn, `CN(CCCCCNC(=O)/C=C/c1ccc(Cl)c(Cl)c1)CCc1c[nH]c2ccccc12` displayed a concentration for half-maximal inhibition (IC50) of 870 nM.
`Cc1cnc(NCC2CCCCC2)nc1N[C@@H](CO)C(=O)Nc1ccccc1` came in with an IC50 of 1100 nM.
Consider `CCc1ccc(N2C(=O)C3C(Cc4ccc(OC(C)(C)C)cc4)NC4(C(=O)N(Cc5ccccc5)c5ccc(F)cc54)C3C2=O)cc1` (stereo not drawn), for which the 50% inhibitory concentration (IC50) was 800 nM.
`Cc1ccc(-n2[nH]c(C)c(N=Nc3cccc(-c4cccc(NC(=O)OC(C)(C)C)c4)c3O)c2=O)cc1C`: the IC50 came to 700 nM.
In turn, `CCN(C(=O)c1ccc(NC(=O)c2cccs2)cc1)c1nc2c(C)cccc2s1` came in with an IC50 of 850 nM.
On to `O=C(N[C@@H](Cc1ccccc1)C(=O)NCc1cccc(C(F)(F)F)c1)c1ccc(O)c(-c2ccc(Cl)c(Cl)c2)c1`, for which the half-inhibitory concentration (IC50) stood at 700 nM.
The same measure for `c1ccc(CN2CCC(NCc3ccccc3-c3ccc(CNC4CCCC4)cc3)CC2)cc1`: 910 nM.
`CN1CCN(c2ccnc3ccc(NC(=O)N(C)c4ccc(Cl)c(Cl)c4)cc23)CC1`: the concentration for half-maximal inhibition (IC50) is 740 nM.
The same measure for `NCCCCc1c(-c2ccc(Cl)c(Cl)c2)[nH]c2ccc(Cl)cc12`: 910 nM; for `NS(=O)(=O)c1ccc(CNC(=O)c2cnc3c(O)cccc3c2Nc2cccc(NC(=O)c3ccc(Cl)c(Cl)c3)c2)cc1`: 1720 nM; for `O=C(/C=C/c1cccc2ccccc12)NCCCCCN1CCC(c2c[nH]c3ccccc23)CC1`: 1140 nM.
`Cc1ccccc1CNc1noc(-c2c(F)cccc2Cl)n1` came in with a half-maximal inhibitory concentration (IC50) of 720 nM.
`CCCCCC(C)c1cc(O)c2c(c1)OC(C)(C)C=C2C1=CCN(Cc2ccccc2)CC1` (stereo not drawn): the 50% inhibitory concentration (IC50) came to 780 nM.
The same measure for `COc1ccc(S(=O)(=O)Nc2ccc(C(=O)NCc3ccccc3C(F)(F)F)cc2)cc1N1CCN(CC2CC2)CC1`: 1150 nM.
On to `OCCN1CCN(C2Cc3ccc(F)cc3Sc3ccc(Cl)cc32)CC1` (stereo not drawn), for which the IC50 is 880 nM.

What is called IC50 is the concentration at which inhibition is half-maximal. A higher IC50 goes with a need for much substance.
